Calls of active or inactive are those of the source. For most assays here, no stated cut-off is given here; in the data, actives have a measured IC50 and inactives only a lower limit.
What was measured:
Assay type in all cases: functional
[1] = target: T1, Sentrin-specific protease 7 (Homo sapiens, UniProt Q9BQF6); test: inhibition of human SENP7 cleavage activity – biochemical, luminescence, set 2, SAR follow-up (AID 588600)
T1 sequence (Q9BQF6 whole entry): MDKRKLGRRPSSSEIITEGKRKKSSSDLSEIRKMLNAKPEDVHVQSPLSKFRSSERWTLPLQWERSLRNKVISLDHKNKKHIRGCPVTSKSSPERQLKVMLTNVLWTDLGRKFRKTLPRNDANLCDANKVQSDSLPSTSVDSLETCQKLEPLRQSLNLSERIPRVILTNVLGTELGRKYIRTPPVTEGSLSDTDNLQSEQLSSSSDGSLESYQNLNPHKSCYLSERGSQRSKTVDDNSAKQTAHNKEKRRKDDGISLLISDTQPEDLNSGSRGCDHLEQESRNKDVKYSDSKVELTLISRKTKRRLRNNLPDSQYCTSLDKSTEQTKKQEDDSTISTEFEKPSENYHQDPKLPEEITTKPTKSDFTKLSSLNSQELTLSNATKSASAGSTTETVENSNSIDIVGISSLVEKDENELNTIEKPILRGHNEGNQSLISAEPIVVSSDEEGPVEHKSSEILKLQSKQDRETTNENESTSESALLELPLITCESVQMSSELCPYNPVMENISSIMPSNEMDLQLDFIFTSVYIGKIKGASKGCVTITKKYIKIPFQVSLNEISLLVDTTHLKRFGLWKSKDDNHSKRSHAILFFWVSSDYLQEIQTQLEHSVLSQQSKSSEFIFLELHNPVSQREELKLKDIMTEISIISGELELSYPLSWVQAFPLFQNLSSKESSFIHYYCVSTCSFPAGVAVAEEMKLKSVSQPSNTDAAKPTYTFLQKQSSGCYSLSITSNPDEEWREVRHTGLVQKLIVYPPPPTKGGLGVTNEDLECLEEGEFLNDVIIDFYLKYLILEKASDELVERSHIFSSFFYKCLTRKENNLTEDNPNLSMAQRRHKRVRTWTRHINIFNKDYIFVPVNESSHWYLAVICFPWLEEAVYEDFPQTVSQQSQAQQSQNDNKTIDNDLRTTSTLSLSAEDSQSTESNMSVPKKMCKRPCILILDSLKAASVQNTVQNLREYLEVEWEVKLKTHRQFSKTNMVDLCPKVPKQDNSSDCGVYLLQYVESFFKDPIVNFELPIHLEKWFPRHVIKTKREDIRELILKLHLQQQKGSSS

[2] = target: T2, Sentrin-specific protease 8 (Homo sapiens, UniProt Q96LD8); test: inhibition of sentrin protease 8 – biochemical, luminescence, set 2, SAR follow-up (AID 588601)
T2 sequence (Q96LD8 whole entry): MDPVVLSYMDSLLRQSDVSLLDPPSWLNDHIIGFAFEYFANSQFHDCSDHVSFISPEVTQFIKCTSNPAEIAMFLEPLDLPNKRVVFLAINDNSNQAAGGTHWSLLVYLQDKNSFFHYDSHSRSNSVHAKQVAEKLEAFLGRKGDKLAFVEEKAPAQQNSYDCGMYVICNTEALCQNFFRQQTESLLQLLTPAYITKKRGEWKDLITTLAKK

[3] = target: T3, Sentrin-specific protease 6 (Homo sapiens, UniProt Q9GZR1); test: SAR Analysis of small molecule inhibitors of Sentrin-specific protease 6 (SENP6) using a Luminescent assay. [Related pubchem assays (depositor defined):AID2582, AID2599]
T3 sequence (Q9GZR1 whole entry): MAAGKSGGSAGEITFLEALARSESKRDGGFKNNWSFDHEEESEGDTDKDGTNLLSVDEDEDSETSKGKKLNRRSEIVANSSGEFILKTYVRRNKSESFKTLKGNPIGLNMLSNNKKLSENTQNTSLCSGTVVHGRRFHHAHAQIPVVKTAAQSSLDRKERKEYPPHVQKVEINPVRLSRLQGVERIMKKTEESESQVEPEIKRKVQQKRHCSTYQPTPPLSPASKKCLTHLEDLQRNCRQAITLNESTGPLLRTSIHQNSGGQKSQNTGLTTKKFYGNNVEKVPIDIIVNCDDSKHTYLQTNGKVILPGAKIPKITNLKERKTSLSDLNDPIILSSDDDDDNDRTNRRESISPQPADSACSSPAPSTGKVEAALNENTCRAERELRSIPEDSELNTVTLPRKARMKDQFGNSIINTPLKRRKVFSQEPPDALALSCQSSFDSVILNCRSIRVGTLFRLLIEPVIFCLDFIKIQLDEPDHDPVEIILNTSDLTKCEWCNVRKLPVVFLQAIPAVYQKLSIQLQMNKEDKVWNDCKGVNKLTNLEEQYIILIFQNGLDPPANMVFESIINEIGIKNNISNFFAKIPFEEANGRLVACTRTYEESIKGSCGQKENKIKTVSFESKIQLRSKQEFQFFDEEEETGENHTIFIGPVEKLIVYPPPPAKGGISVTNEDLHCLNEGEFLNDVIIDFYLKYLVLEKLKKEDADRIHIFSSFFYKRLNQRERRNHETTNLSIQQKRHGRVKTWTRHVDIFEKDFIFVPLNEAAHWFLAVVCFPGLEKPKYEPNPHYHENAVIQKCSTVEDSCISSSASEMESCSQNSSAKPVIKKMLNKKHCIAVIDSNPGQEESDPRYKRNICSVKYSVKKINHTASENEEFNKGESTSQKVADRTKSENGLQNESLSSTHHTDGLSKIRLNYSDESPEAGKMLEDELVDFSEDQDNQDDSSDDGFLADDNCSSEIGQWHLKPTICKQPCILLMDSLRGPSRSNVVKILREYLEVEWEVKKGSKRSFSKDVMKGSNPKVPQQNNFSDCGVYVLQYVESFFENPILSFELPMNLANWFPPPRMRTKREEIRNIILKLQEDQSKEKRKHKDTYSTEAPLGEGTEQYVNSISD

[4] = target: T3, Sentrin-specific protease 6; test: inhibition of human SENP6 catalytic domain – biochemical, luminescence, set 2, SAR follow-up (AID 588598)
[5] = target: T4, Caspase-3 (Homo sapiens, UniProt P42574); test: SAR Analysis of small molecule inhibitors of Sentrin-specific proteases (SENPs) using a Caspase-3 Selectivity assay. [Related pubchem assays (depositor defined):AID2540, AID2599, AID434973, AID489001]
T4 sequence (P42574 whole entry): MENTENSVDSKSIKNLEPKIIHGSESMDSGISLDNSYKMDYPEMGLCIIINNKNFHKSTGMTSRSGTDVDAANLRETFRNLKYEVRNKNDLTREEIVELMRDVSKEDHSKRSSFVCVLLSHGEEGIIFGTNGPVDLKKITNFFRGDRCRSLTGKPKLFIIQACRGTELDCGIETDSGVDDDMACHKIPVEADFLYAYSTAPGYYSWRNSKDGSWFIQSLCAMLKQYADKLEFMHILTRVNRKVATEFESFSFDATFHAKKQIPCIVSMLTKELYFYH

[6] = target: T2, Sentrin-specific protease 8; test: inhibition of human SENP8 cleavage activity – biochemical, luminescence, SAR follow-up (AID 504501)
[7] = target: T1, Sentrin-specific protease 7; test: inhibition of human SENP7 cleavage activity – biochemical, luminescence, SAR follow-up (AID 504497)
[8] = target: T4, Caspase-3; test: inhibition of recombinant caspase-3 activity – biochemical, luminescence, set 2, selectivity assay for SENP protease inhibitor project, SAR follow-up (AID 588599)
[9] = target: T5, Endoribonuclease toxin MazF (Escherichia coli K-12, UniProt P0AE70); test: substrate-only fluorescence increase artefacts – biochemical, single-stranded RNase substrate, counter-screen for MazEF activator project, dose response (AID 588502)
T5 sequence (P0AE70 whole entry): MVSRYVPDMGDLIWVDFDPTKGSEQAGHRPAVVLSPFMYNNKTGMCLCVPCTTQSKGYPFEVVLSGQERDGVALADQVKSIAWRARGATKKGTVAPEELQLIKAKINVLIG

[10] = tested on: MEF; test: SAR analysis of small molecule cytotoxicity of MazEF TA System activators in embryonic fibroblast (MEF) cells. [Related pubchem assays (depositor defined):AID504720, AID504743]; details: Mus musculus
[11] = target: T5, Endoribonuclease toxin MazF; test: SAR analysis of small molecule activators of the MazEF TA System via a fluorescence-based single-stranded RNase assay counterscreen. [Related pubchem assays (depositor defined):AID504720, AID504743]
[12] = target: T5, Endoribonuclease toxin MazF; test: activation of MazEF endoribonuclease cleavage – biochemical, fluorescence, single-stranded RNA substrate, uHTS hits, dose response (AID 588481)
[13] = target: T5, Endoribonuclease toxin MazF; test: MazEF toxin-antitoxin RNase activation – biochemical, fluorescence, single-stranded RNA substrate, SAR follow-up (AID 588603)

For `O=C(Nc1nc2ccccc2s1)c1cccs1`, the IC50 [1] was 2.67 µM (active), the IC50 [2] was 2.2 µM (active) and the IC50 [3] was > 99 µM (inactive). The IC50 [4] was 2.07 µM (active), the IC50 [5] was 72 µM (active) and the IC50 [6] was > 99 µM (inactive). The IC50 [7] was 2.5 µM (active) and the IC50 [8] was 6.86 µM (active).

With `Cc1ccc2nc(NCCc3ccc(Cl)cc3)c3nncn3c2c1` the EC50 [9] was > 99 µM (inactive), the CC50 [10] was > 99 µM (inactive) and the EC50 [11] was > 99 µM (inactive). The EC50 [12] was 33.1 µM (inactive) and the EC50 [13] was 17.7 µM (active).

Reference: ChEMBL document CHEMBL1201862, “PubChem BioAssay data set” (2004)
